Test [1] has as its system NQO1 specific enzyme activity in BEAS-2B cells (marker for NRF2 activation). Description: BEAS-2B NQO1 MTT Assay. In kind it is cell-based. The following applies: compound incubated 48 hours, read-out: EC50 (NQO1 specific enzyme activity induction). The gist of the method:
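BEAS-2B cells treated with compound for 48 h at 37 °C, then lysed; NQO1 activity in lysates measured kinetically by MTT reduction at A570 over 30 min. pEC50 from 3-parameter fit of ΔOD/min versus log concentration; lysate also taken for Cell Titer Glo.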

Test [2] concerns the target T1, full length Keap1 protein / full length NRF2 protein (Homo sapiens, UniProt Q14145).
T1 construct: full length NRF2 protein and full length Keap1 protein (Keap1 exists a dimer) are used; His
As to the kind of experiment: NRF2-Keap1 TR-FRET Low Protein Assay. In kind it is binding. As to conditions: 1.25 nM Keap1 FlagHis and 2.5 nM biotin-NRF2 added. The gist of the method: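 Flag-tagged full-length Keap1 was preincubated with compound (3-fold series) for 2.25 h at 37 °C in Tris pH 8.0/MgCl2/NaCl/BSA/DTT/CHAPS. Biotin-Avi-NRF2 (added at 2.5 nM) was then bound for 1.25 h at 4 °C. Eu-streptavidin/anti-Flag-APC TR-FRET (665/615 nm) was read after 1 h at RT, and pIC50 came from a four-parameter fit.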
In general terms: In TR-FRET formats the signal depends on donor and acceptor labels being close together.

Test [3] concerns the target T2, Keap1 Kelch domain (321-609) / TAMRA-labeled 16mer NRF2 peptide (ETGE motif) (Homo sapiens, UniProt Q14145).
T2 construct: the Kelch domain (321-609) of Keap1 is used
Description: NRF2-Keap1 FP Assay (Keap1 Kelch fluorescence polarization). In kind it is binding. The following applies: 20 nM Keap1 (321-609), 8 nM Tamra labeled peptide. The gist of the method:
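Compound dilutions (3-fold) were incubated 1 hr at room temperature with 20 nM Keap1 Kelch (321-609) and 8 nM TAMRA-labeled ETGE 16mer peptide. Buffer was 50 mM Tris pH 8.0, 100 mM NaCl, 5 mM MgCl2, 1 mM DTT, 2 mM CHAPS, 0.005% BSA. Fluorescence polarization (mP) was normalized to controls and fitted with a four-parameter equation to give pIC50.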
In general terms: Polarisation of emitted light reports the rotation of a fluorescent probe.

Read-outs that look alike come from different tables or passages of the source.

Usually EC50 stands for the concentration giving half of the maximal effect. The IC50 is the concentration needed to halve the response being measured.

T2 sequence (Q14145 321-609): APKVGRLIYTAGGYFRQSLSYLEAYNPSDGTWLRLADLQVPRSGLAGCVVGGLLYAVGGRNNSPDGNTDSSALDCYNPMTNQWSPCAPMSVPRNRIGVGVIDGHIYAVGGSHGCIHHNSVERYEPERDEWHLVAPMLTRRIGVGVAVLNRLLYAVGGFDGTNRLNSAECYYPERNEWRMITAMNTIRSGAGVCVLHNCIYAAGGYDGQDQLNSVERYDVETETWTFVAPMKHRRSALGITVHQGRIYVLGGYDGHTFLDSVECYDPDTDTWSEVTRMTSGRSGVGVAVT
T1 sequence (Q14145 whole entry): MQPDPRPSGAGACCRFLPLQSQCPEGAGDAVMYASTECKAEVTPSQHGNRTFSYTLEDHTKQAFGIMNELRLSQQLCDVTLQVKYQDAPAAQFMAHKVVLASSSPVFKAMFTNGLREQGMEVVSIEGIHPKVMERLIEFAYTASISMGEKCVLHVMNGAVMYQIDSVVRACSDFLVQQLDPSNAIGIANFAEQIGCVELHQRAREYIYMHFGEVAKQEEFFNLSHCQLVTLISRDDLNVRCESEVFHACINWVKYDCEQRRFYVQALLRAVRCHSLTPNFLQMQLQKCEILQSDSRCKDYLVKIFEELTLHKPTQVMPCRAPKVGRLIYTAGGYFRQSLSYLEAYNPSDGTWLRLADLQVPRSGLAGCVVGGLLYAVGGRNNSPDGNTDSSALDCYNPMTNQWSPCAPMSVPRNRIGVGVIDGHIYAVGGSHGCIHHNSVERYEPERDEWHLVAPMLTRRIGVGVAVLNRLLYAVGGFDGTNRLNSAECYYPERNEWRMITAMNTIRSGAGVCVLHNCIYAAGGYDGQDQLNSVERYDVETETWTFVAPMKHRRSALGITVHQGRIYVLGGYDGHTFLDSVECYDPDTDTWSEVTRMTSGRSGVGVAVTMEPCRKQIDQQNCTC

On to `C[C@H](Oc1cccc(-c2cccc(-n3ncc(C(=O)O)c3[C@@H]3C[C@H]3c3cn(C4COC4)nn3)c2)c1)C1CCCCC1` (racemic) [Example 77, 1-(3′-((S)-1-Cyclohexylethoxy)-[1,1′-biphenyl]-3-yl)-5-(trans-2-(1-(oxetan-3-yl)-1H-1,2,3-triazol-4-yl)cyclopropyl)-1H-pyrazole-4-carboxylic acid], for which the EC50 in test [1] (Homo sapiens) was in the range of 10 to 100 nM. Besides, the IC50 in test [2] and in test [3] was 10 to 100 nM throughout.

Regarding `C[C@H](Oc1cccc(-c2cccc(-n3ncc(C(=O)O)c3[C@@H]3C[C@H]3c3cn(C4CCC4)nn3)c2)c1)C1CCCCC1` (racemic) [Example 78, 5-(trans-2-(1-Cyclobutyl-1H-1,2,3-triazol-4-yl)cyclopropyl)-1-(3′-((S)-1-cyclohexylethoxy)-[1,1′-biphenyl]-3-yl)-1H-pyrazole-4-carboxylic acid], the EC50 in test [1] (Homo sapiens) is 1 to 10 nM. In addition, the IC50 in test [2] and in test [3] was 10 to 100 nM throughout.

With `C[C@H](Oc1cccc(-c2cccc(-n3ncc(C(=O)O)c3[C@@H]3C[C@H]3c3cn(C)nn3)c2)c1F)C1CCCCC1` [Example 104, 1-(3′-((S)-1-cyclohexylethoxy)-2′-fluoro-[1,1′-biphenyl]-3-yl)-5-((1R,2R)-2-(1-methyl-1H-1,2,3-triazol-4-yl)cyclopropyl)-1H-pyrazole-4-carboxylic Acid], in test [1] (Homo sapiens), the EC50 was in the range of 10 to 100 nM. Further, the IC50 in test [2] and in test [3] was 10 to 100 nM throughout.

Take `CC[C@H]1COc2ccccc2CN1Cc1cccc(-c2cccc(-n3ncc(C(=O)O)c3[C@@H]3C[C@H]3c3cn(C)nn3)c2)c1` [Example 119, 1-(3′-(((S)-3-Ethyl-2,3-dihydrobenzo[f][1,4]oxazepin-4(5H)-yl)methyl)-[1,1′-biphenyl]-3-yl)-5-((1R,2R)-2-(1-methyl-1H-1,2,3-triazol-4-yl)cyclopropyl)-1H-pyrazole-4-carboxylic Acid]: in test [1] (Homo sapiens), the EC50 fell in the range of 100 to 1000 nM. Besides, the IC50 is < 10 nM in test [2] and 10 to 100 nM in test [3].

On to `CCn1cc([C@@H]2C[C@H]2c2c(C(=O)O)cnn2-c2cccc(-c3cccc(O[C@@H](C)C4CCCCC4)c3)c2)nn1` (racemic) [Example 76, 1-(3′-((S)-1-Cyclohexylethoxy)-[1,1′-biphenyl]-3-yl)-5-(trans-2-(1-ethyl-1H-1,2,3-triazol-4-yl)cyclopropyl)-1H-pyrazole-4-carboxylic acid], for which the EC50 in test [1] (Homo sapiens) lay in the range of 1 to 10 nM. In addition, the IC50 in test [2] and in test [3] was 10 to 100 nM each time.

Turning to `C[C@H](Oc1cccc(-c2cccc(-n3ncc(C(=O)O)c3[C@@H]3C[C@H]3c3cn(CCN(C)C)nn3)c2)c1)C1CCCCC1` (racemic) [Example 88, 1-(3′-((S)-1-Cyclohexylethoxy)-[1,1′-biphenyl]-3-yl)-5-(trans-2-(1-(2-(dimethylamino)ethyl)-1H-1,2,3-triazol-4-yl)cyclopropyl)-1H-pyrazole-4-carboxylic acid], the EC50 in test [1] (Homo sapiens) lay in the range of 10 to 100 nM. Besides, the IC50 in test [2] and in test [3] was 10 to 100 nM throughout.

With `CCCC1CCCCN1S(=O)(=O)c1cccc(-c2cccc(-n3ncc(C(=O)O)c3[C@@H]3C[C@H]3c3cn(C)nn3)c2)c1` (mixture of isomers) [Example 142, 5-((1,2-trans)-2-(1-Methyl-1H-1,2,3-triazol-4-yl)cyclopropyl)-1-(3′-((2-propylpiperidin-1-yl)sulfonyl)-[1,1′-biphenyl]-3-yl)-1H-pyrazole-4-carboxylic Acid], the EC50 in test [1] (Homo sapiens) is 100 to 1000 nM. Further, the IC50 in test [2] and in test [3] was 10 to 100 nM in each case.

Take `C[C@@H](Oc1cccc(-c2cccc(-n3ncc(C(=O)O)c3[C@@H]3C[C@H]3c3cn(C)nn3)c2)c1)C1CCCCCC1` [Example 74, 1-(3′-((R)-1-Cycloheptylethoxy)-[1,1′-biphenyl]-3-yl)-5-((1R,2R)-2-(1-methyl-1H-1,2,3-triazol-4-yl)cyclopropyl)-1H-pyrazole-4-carboxylic Acid]: the EC50 in test [1] (Homo sapiens) lay in the range of 10 to 100 nM. For the same molecule, the IC50 in test [2] and in test [3] was 10 to 100 nM throughout.

As for “1-(3′-((1-Ethyl-2,3-dihydro-1H-benzo[e][1,4]diazepin-4(5H)-yl)methyl)-[1,1′-biphenyl]-3-yl)-5-((1,2-trans)-2-(1-methyl-1H-1,2,3-triazol-4-yl)cyclopropyl)-1H-pyrazole-4-carboxylic Acid [Example 127]”, the EC50 in test [1] was in the range of 100 to 1000 nM. In addition, the IC50 in test [2] and in test [3] was 10 to 100 nM in each case.

As for `C[C@@H]1Cc2ccccc2S(=O)(=O)N(Cc2cccc(-c3cccc(-n4ncc(C(=O)O)c4[C@@H]4C[C@H]4c4cn(C)nn4)c3)c2)C1` [Example 130, 1-(3′-(((R)-4-Methyl-1,1-dioxido-4,5-dihydrobenzo[f][1,2]thiazepin-2(3H)-yl)methyl)-[1,1′-biphenyl]-3-yl)-5-((1R,2R)-2-(1-methyl-1H-1,2,3-triazol-4-yl)cyclopropyl)-1H-pyrazole-4-carboxylic Acid], in test [1] (Homo sapiens), the EC50 fell in the range of 100 to 1000 nM. In addition, the IC50 in test [2] and in test [3] was 10 to 100 nM in each case.

Consider `C[C@H]1Cc2ccc(Br)cc2S(=O)(=O)N(Cc2cccc(-c3cccc(-n4ncc(C(=O)O)c4[C@@H]4C[C@H]4c4cn(C)nn4)c3)c2)C1` (single isomer, unassigned; isomer 1) [Example 134], for which the EC50 in test [1] (Homo sapiens) lay in the range of 100 to 1000 nM. Further, the IC50 was < 10 nM in test [2] and 10 to 100 nM in test [3].

On to `CC[C@@H]1CN(Cc2cccc(-c3cccc(-n4ncc(C(=O)O)c4[C@H]4C[C@@H]4c4cn(C(C)C)nn4)c3)c2)Cc2ccccc2O1` (racemic) [Example 128, 1-(3′-(((R)-2-ethyl-2,3-dihydrobenzo[f][1,4]oxazepin-4(5H)-yl)methyl)-[1,1′-biphenyl]-3-yl)-5-((1,2-trans)-2-(1-isopropyl-1H-1,2,3-triazol-4-yl)cyclopropyl)-1H-pyrazole-4-carboxylic Acid], for which, in test [1] (Homo sapiens), the EC50 is 100 to 1000 nM. Moreover, the half-inhibitory concentration (IC50) in test [2] is < 10 nM; in test [3] it was 10 to 100 nM.

Consider `CC[C@@H]1COc2ccccc2CN1Cc1cccc(-c2cccc(-n3ncc(C(=O)O)c3[C@@H]3C[C@H]3c3cn(C)nn3)c2)c1` [Example 120, 1-(3′-(((R)-3-Ethyl-2,3-dihydrobenzo[f][1,4]oxazepin-4(5H)-yl)methyl)-[1,1′-biphenyl]-3-yl)-5-((1R,2R)-2-(1-methyl-1H-1,2,3-triazol-4-yl)cyclopropyl)-1H-pyrazole-4-carboxylic Acid], for which, in test [1] (Homo sapiens), the EC50 is 10 to 100 nM. The IC50 was < 10 nM in test [2] and 10 to 100 nM in test [3].

On to `CC[C@@H]1CN(C(=O)c2cccc(-c3cccc(-n4ncc(C(=O)O)c4[C@@H]4C[C@H]4c4cn(C)nn4)c3)c2)Cc2ccccc2O1` [Example 257], for which, in test [1] (Homo sapiens), the EC50 lay in the range of 1000 to 10000 nM. Besides, the IC50 is < 10 nM in test [2] and 10 to 100 nM in test [3].

As for `CC(=O)OCOC(=O)c1cnn(-c2cccc(-c3cccc(O[C@@H](C)C4CCCCC4)c3)c2)c1[C@@H]1C[C@H]1c1cn(C)nn1` [Example 110, Acetoxymethyl 1-(3′-((S)-1-cyclohexylethoxy)-[1,1′-biphenyl]-3-yl)-5-((1R,2R)-2-(1-methyl-1H-1,2,3-triazol-4-yl)cyclopropyl)-1H-pyrazole-4-carboxylate], in test [1] (Homo sapiens), the EC50 is < 1 nM. Moreover, the IC50 in test [2] was 10 to 100 nM; in test [3], 100 to 1000 nM.

With `C[C@H](Oc1cccc(-c2cccc(-n3ncc(C(=O)O)c3[C@@H]3C[C@H]3c3cn(C4CCOCC4)nn3)c2)c1)C1CCCCC1` [Example 95, 1-(3′-((S)-1-Cyclohexylethoxy)-[1,1′-biphenyl]-3-yl)-5-((1R,2R)-2-(1-(tetrahydro-2H-pyran-4-yl)-1H-1,2,3-triazol-4-yl)cyclopropyl)-1H-pyrazole-4-carboxylic Acid], the EC50 in test [1] (Homo sapiens) was 1 to 10 nM. Also, the IC50 in test [2] was < 10 nM; in test [3], 10 to 100 nM.

Consider `C[C@H](Oc1cccc(-c2cccc(-n3ncc(C(=O)O)c3[C@@H]3C[C@H]3c3cn(CCO)nn3)c2)c1)C1CCCCC1` (racemic) [Example 90, 1-(3′-((S)-1-Cyclohexylethoxy)-[1,1′-biphenyl]-3-yl)-5-(trans-2-(1-(2-hydroxyethyl)-1H-1,2,3-triazol-4-yl)cyclopropyl)-1H-pyrazole-4-carboxylic acid], for which, in test [1] (Homo sapiens), the EC50 was 10 to 100 nM. For the same molecule, the IC50 is < 10 nM in test [2] and 10 to 100 nM in test [3].

The values above are taken from US10364256B2 (GlaxoSmithKline Intellectual Property Development Limited, priority 2015, dated 2019).
